Measurements published in the NIST ThermoML archive (doi:10.1016/j.fluid.2011.11.022).
Numbers after ± are expanded uncertainties.

Assay: wn = mass fraction of the nth substance listed
Conditions: Liquid, w2 = 0.5; for mass density: Buoyancy - hydrostatic balance; for viscosity: Falling or rolling sphere viscometry

OCCOCCO [diethylene glycol] + OCCO
Conditions	mass density [kg/m3]	viscosity [mPa·s]
298.15 K, 98 kPa	1112.21 ± 6.7	21.12 ± 0.86
298.15 K, 49030 kPa	1135.06 ± 6.8	28.23 ± 1.1
298.15 K, 98060 kPa	1151.37 ± 6.9	36.95 ± 1.5
298.15 K, 196130 kPa	1178.94 ± 7.1	60.47 ± 2.4
322.33 K, 49030 kPa	1121.67 ± 6.7	10.74 ± 0.44
322.34 K, 98 kPa	1097.38 ± 6.6	8.316 ± 0.34
332.21 K, 196130 kPa	1162.18 ± 7	20.76 ± 0.85
332.33 K, 98060 kPa	1132.91 ± 6.8	13.57 ± 0.55
353.8 K, 196130 kPa	1150.15 ± 6.9	7.683 ± 0.31
353.83 K, 98 kPa	1075.19 ± 6.5	3.488 ± 0.14
353.87 K, 49030 kPa	1101.62 ± 6.6	4.407 ± 0.18
354.1 K, 98060 kPa	1119.74 ± 6.7	5.334 ± 0.22
392.87 K, 98 kPa	1043.14 ± 6.3	1.641 ± 0.067
393.06 K, 49030 kPa	1072.66 ± 6.4	1.986 ± 0.081
393.3 K, 98060 kPa	1093.17 ± 6.6	2.36 ± 0.096
393.6 K, 196130 kPa	1126.12 ± 6.8	3.232 ± 0.13
435.93 K, 49030 kPa	1035.82 ± 6.2	1.09 ± 0.044
435.98 K, 98060 kPa	1060.12 ± 6.4	1.293 ± 0.053
436.08 K, 98 kPa	1001.82 ± 6	0.885 ± 0.036
436.13 K, 196130 kPa	1097.25 ± 6.6	1.731 ± 0.07
462.52 K, 98060 kPa	1037.39 ± 6.2	0.989 ± 0.04
462.54 K, 196130 kPa	1077.67 ± 6.5	1.313 ± 0.053
462.73 K, 49030 kPa	1011.05 ± 6.1	0.791 ± 0.032
462.75 K, 98 kPa	973.24 ± 5.8	0.671 ± 0.027

OCCOCCOCCO [triethylene glycol] + OCCO
Conditions	mass density [kg/m3]	viscosity [mPa·s]
298.13 K, 98 kPa	1115.1 ± 6.7	26.24 ± 1.1
298.15 K, 49030 kPa	1136.47 ± 6.8	35.89 ± 1.5
298.15 K, 98060 kPa	1152.73 ± 6.9	48.05 ± 2
298.15 K, 196130 kPa	1180.8 ± 7.1	82.26 ± 3.6
322 K, 196130 kPa	1169.4 ± 7	27.05 ± 1.1
322.25 K, 98060 kPa	1139.05 ± 6.8	17.16 ± 0.7
322.32 K, 49030 kPa	1121.83 ± 6.7	13.34 ± 0.55
322.36 K, 98 kPa	1101.75 ± 6.6	10.13 ± 0.42
355.34 K, 98 kPa	1079 ± 6.5	3.999 ± 0.16
355.56 K, 49030 kPa	1099.04 ± 6.6	5.082 ± 0.21
355.67 K, 98060 kPa	1118.11 ± 6.7	6.302 ± 0.26
355.76 K, 196130 kPa	1151.43 ± 6.9	9.251 ± 0.38
392.2 K, 98 kPa	1047.37 ± 6.3	1.946 ± 0.08
392.33 K, 49030 kPa	1070.25 ± 6.4	2.418 ± 0.099
392.39 K, 98060 kPa	1092.45 ± 6.6	2.907 ± 0.12
392.77 K, 196130 kPa	1129.25 ± 6.8	4.045 ± 0.17
434.54 K, 98060 kPa	1059.58 ± 6.4	1.581 ± 0.065
434.56 K, 49030 kPa	1032.55 ± 6.2	1.33 ± 0.054
434.59 K, 98 kPa	1002.88 ± 6	1.058 ± 0.043
434.7 K, 196130 kPa	1101.01 ± 6.6	2.158 ± 0.088
462.27 K, 196130 kPa	1080.63 ± 6.5	1.616 ± 0.066
462.4 K, 49030 kPa	1004.97 ± 6	0.996 ± 0.041
462.47 K, 98060 kPa	1035.79 ± 6.2	1.196 ± 0.049
462.61 K, 98 kPa	968.72 ± 5.8	0.705 ± 0.029

OCCOCCOCCO [triethylene glycol] + OCCOCCO
Conditions	mass density [kg/m3]	viscosity [mPa·s]
298.15 K, 98 kPa	1116.28 ± 6.7	32.4 ± 1.3
298.15 K, 49030 kPa	1140.16 ± 6.8	48.05 ± 2
298.15 K, 98060 kPa	1157.54 ± 7	68.97 ± 2.9
298.15 K, 196130 kPa	1186.23 ± 7.1	134.9 ± 6.8
322.18 K, 196130 kPa	1172.01 ± 7	39.19 ± 1.6
322.32 K, 98060 kPa	1143.4 ± 6.9	22.33 ± 0.92
322.38 K, 49030 kPa	1125.8 ± 6.8	16.39 ± 0.67
322.43 K, 98 kPa	1104.5 ± 6.6	11.71 ± 0.48
355.15 K, 98 kPa	1083.98 ± 6.5	4.468 ± 0.18
355.59 K, 49030 kPa	1103.74 ± 6.6	5.935 ± 0.24
355.77 K, 98060 kPa	1122.4 ± 6.7	7.663 ± 0.32
355.95 K, 196130 kPa	1151.5 ± 6.9	12.1 ± 0.5
391.02 K, 98 kPa	1055.33 ± 6.3	2.179 ± 0.089
391.29 K, 49030 kPa	1076.96 ± 6.5	2.772 ± 0.11
391.39 K, 98060 kPa	1098.19 ± 6.6	3.484 ± 0.14
391.57 K, 196130 kPa	1129.2 ± 6.8	5.188 ± 0.21
432.13 K, 98 kPa	1014.59 ± 6.1	1.172 ± 0.048
432.65 K, 98060 kPa	1067.76 ± 6.4	1.884 ± 0.077
432.68 K, 196130 kPa	1102.63 ± 6.6	2.658 ± 0.11
432.76 K, 49030 kPa	1041.87 ± 6.3	1.51 ± 0.062
472.77 K, 196130 kPa	1075.84 ± 6.5	1.747 ± 0.072
472.82 K, 98060 kPa	1035.69 ± 6.2	1.236 ± 0.051
473.06 K, 49030 kPa	1003.66 ± 6	1.008 ± 0.041
473.1 K, 98 kPa	965.58 ± 5.8	0.716 ± 0.029
